{"source": "patent US8754094B2", "about": "“Methods for heat shock protein dependent cancer treatment” (The Research Foundation of State University of New York, priority 2007, dated 2014)", "key": {"NCI-H929": {"system": "NCI-H929", "test": "cells", "method": "For cell survival assays, cells were plated in 96-well culture plates (BD Biosciences, San Jose, Calif.), 100,000 cells/well with 200 μl, of culture media. The effect of the drugs on cell survival was assessed, for example, by measuring 3-(4,5-dimethylthiazol-2-yl)-5-(3-carboxymethoxyphenyl)-2-(4-sulphophenyl)-2H-tetrazolium, inner salt (MTS) (Promega, Madison, Wis.) dye absorbance of viable cells by adding 40 μL of 5 mg/mL MTS to each well for the last 4 hours of drug exposure. Additional wells containing cells only (untreated control) or medium only (background medium control) were used as controls. Absorbance at 490 nm (A490) was measured using a spectrophotometer (Dynatech Laboratories, Chantilly, Va.). Viability was estimated according to the following formula: […]\nBriefly, the cellular fraction affected (Fa) was calculated based on an MTS assay after exposing cells to the drugs alone or in combination at a given dose compared to untreated cells, using the formula: Fa=100−% Viable Cells. Fa values were entered into Calcusyn software (Biosoft, Ferguson, Mo. and Cambridge, United Kingdom) to obtain CI values. CI values <1.0 indicated a synergistic effect of the drugs used in combination. For Inhibitory Concentration, or IC, calculations, dose-effect curves for MAL3-101, MG-132, 17-AAG, and their combinations were used to interpolate the median inhibitory concentration that caused 30% (IC30), 50% (IC50), and 70% (IC70) reductions in the % viable cells compared to untreated cells.\nCells (1×10^5) were plated in 96-well microtiter plates (Costar, Cambridge, Mass.) in 100 μL, of growth medium and exposed for indicated periods to various concentrations of compounds or their combinations. Control cells were cultured in DMSO. All studies were performed in triplicate and repeated at least three times independently. Survival was measured by an MTS assay (Promega, Madison, Wis.) as per the manufacturer's directions. The absorbance (A450) ratio of treated to untreated cells, after the subtraction of background absorbance, was multiplied by 100 to obtain percent cell survival. Cell death was measured by trypan blue dye exclusion in identically plated cultures.\nDMSO-treated cultures were compared to drug-treated cultures by Student's t tests or by Dunnett's post-hoc test following significant repeated-measures one-way analysis of variance. All tests were two-tailed, and statistical significance was set at P≦0.05. Isobologram analysis was performed to derive combination index (CI) values based upon the Chou-Talalay method using CalcuSyn software (Biosoft, Ferguson, Mo. and Cambridge, United Kingdom) as described in L. Catley, E. Weisberg, T. Kiziltepe, Y. T. Tai, T. Hideshima, P. Neri, P. Tassone, P. Atadja, D. Chauhan, N. C. Munshi, K. C. Anderson, Aggresome induction by proteasome inhibitor Bortezomib and {alpha}-tubulin hyperacetylation by tubulin deacetylase (TDAC) inhibitor LBH589 are synergistic in myeloma cells, Blood (2006), which is incorporated herein by reference."}, "BiP": {"system": "BiP", "test": "Levels of ER lumenal chaperone BiP in NCI-H929", "type": "cell-based, human", "conditions": "NCI-H929, data not shown"}, "XBP-1 mRNA splicing": {"system": "XBP-1 mRNA splicing", "test": "RT-PCR analysis of XBP-1 mRNA splicing (UPR) in NCI-H929", "type": "cell-based, human", "method": "(§1) Total RNA was prepared from NCI-H929 and HEK293 cells using TRIzol reagent (Invitrogen, Carlsbad, Calif.) following exposure to MAL3-101, MG-132, and 17-AAG alone and in combination at the indicated time points. Tunicamycin was used at varying concentrations.\n(§2) Total RNAs were used for the first-strand synthesis with the Superscript reverse transcriptase (Invitrogen, Carlsbad, Calif.). PCR primers (5′-[…]-3′ [Seq. ID No. 1] and 5′-[…]-3′ [Seq. ID No. 2]) encompassing the missing sequences in XPB-1s were used for the PCR amplification with AmpliTaq Gold polymerase (Applied Biosystem, Foster City, Calif.) with a probe set spanning the spliced-out region. PCR products were separated by electrophoresis on a 3% agarose gel (Agarose-1000, Invitrogen) and visualized them by ethidium bromide staining to assess the degree of X-box binding protein-1 unspliced (XBP-1u, ˜280 bp) and spliced (XBP-1s, ˜265 bp) mRNA.\nUnspliced (XBP-1u, 285 bp) and spliced (XBP-1s, 259 bp) XBP-1 mRNA levels of treated NCI-H929 were determined by PCR amplification of total RNA that was reverse transcribed by SuperScript Reverse Transcriptase (Invitrogen, Carlsbad, Calif.). PCR primers (5′-[…]-3′ [Seq. ID No. 1] and 5′-[…]-3′ [Seq. ID No. 2]), which flank the 26-nt intron of XBP1 mRNA, were used for PCR amplification with Ex Taq polymerase (Takara Bio, Shiga, Japan)."}, "Hsp70": {"system": "Hsp70", "test": "Hsp70 modulation"}, "XBP-1 splicing": {"system": "XBP-1 splicing", "test": "RT-PCR analysis of XBP-1 splicing in HEK293", "type": "cell-based", "conditions": "HEK293, 6 hours", "method": "as §1, §2"}}, "note": "Entries after “also recorded” stand apart in the source; their conditions may differ. Where two headings read alike, the source gives them in different places."}
{"compound": "C=CCNC1=C2C[C@@H](C)C[C@H](OC)[C@H](O)[C@@H](C)/C=C(\\C)[C@H](OC(N)=O)[C@@H](OC)/C=C\\C=C(/C)C(=O)NC(=CC1=O)C2=O", "note": "[17-AAG, 17-allylamino-17-demethoxygeldanamycin]", "values": [{"measurement": "IC50", "setting": "NCI-H929; read-out: IC50 (reduction of % viable cells), single agent, NCI-H929, 40 h exposure, MTS assay, agent alone", "value": 400, "unit": "nM"}, {"measurement": "IC50", "setting": "NCI-H929; read-out: IC50 of 17-AAG in combination with 5 μM MAL3-101, NCI-H929, MTS, plus 5 μM MAL3-101", "value": 300, "unit": "nM"}, {"measurement": "IC50", "setting": "NCI-H929; read-out: IC50 of 17-AAG in combination with 10 μM MAL3-101, NCI-H929, 40 h, MTS, plus 10 μM MAL3-101", "value": 30, "unit": "nM"}, {"measurement": "levels of BiP", "setting": "BiP", "value": "did not change"}, {"measurement": "XBP-1 mRNA splicing at early time points", "setting": "XBP-1 mRNA splicing; NCI-H929, early time points (4 h), concentrations that gave synergistic cytotoxicity", "value": "no XBP-1 mRNA splicing was observed"}]}
{"compound": "CC(C)(C)NC(=O)C(c1ccc(I)cc1)N(CCN1CCOCC1)C(=O)CCCNC(=O)c1ccccc1", "note": "(stereo not drawn) [MAL3-51]", "values": [{"measurement": "potency as Hsp70 modulator relative to MAL3-101", "setting": "Hsp70", "value": "less potent Hsp70 antagonist than MAL3-101; also recorded: substantially less potent Hsp70 modulator"}, {"measurement": "response of percent viability", "setting": "NCI-H929; NCI-H929, 10 or 20 μM, 40 h, MTS", "value": "no response"}]}
{"compound": "tunicamycin [reference compound]", "values": [{"measurement": "XBP-1 mRNA splicing, positive control", "setting": "XBP-1 mRNA splicing; NCI-H929, 5 μg/ml, 4 h", "value": "induced XBP-1 mRNA splicing"}, {"measurement": "XBP-1 splicing in HEK293", "setting": "XBP-1 splicing", "value": "Stronger XBP-1 splicing was observed"}]}
